# Patent publication US20260138970A1, “MODULATORS OF THE CALCIUM SIGNALING CASCADE” (FONDAZIONE TELETHON ETS, priority 2022, published 2026)
# Legend:
# ENaC = experiment: Short-circuit current recordings on human cultured bronchial epithelia, ENaC function; type: cell-based; settings: apical addition; ARN7149 10 μM, ARN11391 20 μM, ARN4550 20 μM, UTP 10 nM; FIG. 9
# Excerpt: In a further experimental setting, snapwell supports (cc3801, Corning) carrying differentiated bronchial epithelia generated in vitro were mounted in a vertical chamber resembling an Ussing system with internal fluid circulation (EM-CSYS-8, Physiologic Instruments, San Diego, CA, USA). The apical and basolateral hemichambers were filled with a solution containing (in mM): 126 NaCl, 0.38 KH2PO4, 2.13 K2HPO4, 1 MgSO4, 1 CaCl2), 24 NaHCO3, and 10 glucose. Both sides were continuously bubbled with a gas mixture containing 5% CO2 and 95% air. The temperature of the solution was kept at 37° C. throughout the experiment.
# During recordings, the following molecules (in addition to ARN7149, ARN11391, and ARN4550) were added in the apical solution: elastase (SE2093002, Serva); UTP (U6625, Merck); amiloride (A7410, Merck). Transepithelial voltage was short-circuited with a voltage-clamp (VCC MC8, Physiologic Instruments, San Diego, CA, USA) connected to the apical and basolateral chambers via Ag—AgCl electrodes and agar bridges (2% agar in 1 M KCl). The offset between voltage electrodes and the fluid resistance were cancelled before experiments. The resulting short-circuited current from each channel was recorded on a personal computer with the Acquire & Analize 2.3 software (Physiologic Instruments, San Diego, CA, USA).
# FRT cells = experiment: Fluo-4 Ca2+ mobilization assay in parental (null) FRT cells; type: cell-based, rat; settings: for potentiation of the Ca2+ increase elicited by UTP, multiple concentrations: UTP 0.25 μM, compounds 1-80 μM, vs vehicle (DMSO), FIG. 8
# Description: Experiments were performed using the microplate reader described for the HS-YFP assay. FRT and HEK293 cells were cultured until confluence in 96-well microplates (3603, Corning). Cells were washed 2 times with PBS (150 μl/wash) and then loaded for 1 h at 37° C. with 5 μM Fluo-4/AM (Thermo Fisher Scientific; catalog number: F23917) in PBS containing 10 mM glucose, 0.5 mM sulfinpyrazone, and 1% fetal bovine serum. […] Each well was assayed individually. Fluo-4 fluorescence (500 nm excitation, 535 nm emission) was detected every 200 ms for 16-40 s. Two seconds after the start of fluorescence recording, the reader automatically injected 165 μl of a modified PBS containing 136 mM KCl instead of NaCl. This solution also contained 10 mM glucose, 0.5 mM sulfinpyrazone, and UTP or SLIGR-NH2 (CAS #171436-38-7) at a final concentration that depended on the specific cell type. For UTP we used: 0.25 μM for FRT; 1 μM for HEKR2; 5 μM for HEK3XKO, HEKR1, and HEKR3. For SLIGR-NH2 we used: 10 μM for HEKR1; 4 μM for HEKR2. These concentrations were chosen to elicit ˜20% of maximal effect based on UTP and SLIGR-NH2 dose-response relationships. The lower agonist concentrations used for HEKR2 cells, compared to HEKR1 cells, are consistent with the higher affinity of ITPR2 for IP3 (16). The Fluo-4 fluorescence increase was quantified using a procedure compiled in Microsoft Excel after background subtraction and normalization for the initial value measured before UTP addition.
# In a further experimental setting, experiments were performed using as above the FLUOstar Omega (BMG Labtech, Offenburg, Germany) microplate reader equipped with syringe pumps and optical excitation/emission filters optimized for yellow fluorescent protein (YFP) fluorescence (ET500/20× and ET535/30m, respectively; Chroma Technology Corporation). FRT and Chem-1 cells were cultured until confluence in 96-well microplates (cc3603, Corning). Cells were washed 2 times with PBS (150 μl/wash) and then loaded for 1 h at 37° C. with 5 μM Fluo-4/AM (Thermo Fisher Scientific; catalog number: F23917) in PBS containing 10 mM glucose, 0.5 mM sulfinpyrazone, and 1% fetal bovine serum. […] Each well was assayed individually. Fluo-4 fluorescence (500 nm excitation, 535 nm emission) was detected every 200 ms for 16-40 s. Two seconds after the start of fluorescence recording, the reader automatically injected 165 μl of a modified PBS containing 136 mM KCl instead of NaCl. This solution also contained, in addition to 10 mM glucose and 0.5 mM sulfinpyrazone, the following agonists: UTP (U6625, Merck) or CCK8s (23371, Cayman Chemical). The Fluo-4 fluorescence increase was quantified using a procedure compiled in Microsoft Excel after background subtraction and normalization for the initial value measured before UTP or CCK8s addition.
# PLC = PLC assay in FRT cells expressing PH-PLC-GFP sensor; type: cell-based; settings: pre-incubation with BAPTA/AM; FIG. 3B
# Description: FRT cells with stable expression of PLC6-PH-GFP, generated in the laboratory of inventors, were cultured up to subconfluent condition in p-Plate96 microplates (Ibidi). Each well of a 96-well microplate was washed 3 times, leaving 125 μl of phosphate-buffered saline (PBS) containing compounds at 10 μM final concentration or vehicle. After 20 min of incubation at 37° C., microplate was moved on the stage of an inverted microscope equipped with GFP excitation/emission filters, 40×oil immersion objective (Olympus, Segrate, Italy), Lambda DG4 illumination system (Sutter Instrument Co., Novato, CA, USA), Prime cmos camera (Photometrics, Tucson, AZ, USA) and MetaMorph imaging acquisition software (Molecular Devices, Sunnyvale, CA, USA). Time-lapse experiments were carried out with 50 ms exposure time, 20 frame/s rate, and 2.4 min total duration. After 20 s and 90 s, UTP 0.25 μM and 100 μM (final concentrations) was respectively added. Analysis was performed with MetaMorph software, by quantifying GFP fluorescence cytoplasmic accumulation in manually selected single cell regions of interest (ROI). After background subtraction, fluorescence recordings were normalized for the initial value.
# TMEM16A = experiment: HS-YFP assay in ITPR-defective HEK293 cells transiently transfected with TMEM16A; type: cell-based; settings: ionomycin 1 μM, FIG. 2D
# P2RY2 = biological target: T1, P2RY2 (Rattus norvegicus, UniProt P41232); experiment: Fluo-4 Ca2+ assay in null FRT cells with P2RY2 antagonist; type: cell-based; settings: AR-C118925XX 10 μM; UTP 0.25 μM; FIG. 5B
# T1 construct: endogenous in cells; host or cells: null (parental) FRT cells
# Description: Experiments were performed using the microplate reader described for the HS-YFP assay. FRT and HEK293 cells were cultured until confluence in 96-well microplates (3603, Corning). Cells were washed 2 times with PBS (150 μl/wash) and then loaded for 1 h at 37° C. with 5 μM Fluo-4/AM (Thermo Fisher Scientific; catalog number: F23917) in PBS containing 10 mM glucose, 0.5 mM sulfinpyrazone, and 1% fetal bovine serum. After loading, cells were washed 2 times with PBS-glucose-sulfinpyrazone (150 μl/wash) and incubated for 20 min at 37° C. with 60 μl of PBS plus 10 mM glucose and 0.5 mM sulfinpyrazone containing compounds of interest at 10 μM final concentration or vehicle. Each well was assayed individually. Fluo-4 fluorescence (500 nm excitation, 535 nm emission) was detected every 200 ms for 16-40 s. Two seconds after the start of fluorescence recording, the reader automatically injected 165 μl of a modified PBS containing 136 mM KCl instead of NaCl. This solution also contained 10 mM glucose, 0.5 mM sulfinpyrazone, and UTP or SLIGR-NH2 (CAS #171436-38-7) at a final concentration that depended on the specific cell type. […] The Fluo-4 fluorescence increase was quantified using a procedure compiled in Microsoft Excel after background subtraction and normalization for the initial value measured before UTP addition.
# T1 sequence (P41232 whole entry): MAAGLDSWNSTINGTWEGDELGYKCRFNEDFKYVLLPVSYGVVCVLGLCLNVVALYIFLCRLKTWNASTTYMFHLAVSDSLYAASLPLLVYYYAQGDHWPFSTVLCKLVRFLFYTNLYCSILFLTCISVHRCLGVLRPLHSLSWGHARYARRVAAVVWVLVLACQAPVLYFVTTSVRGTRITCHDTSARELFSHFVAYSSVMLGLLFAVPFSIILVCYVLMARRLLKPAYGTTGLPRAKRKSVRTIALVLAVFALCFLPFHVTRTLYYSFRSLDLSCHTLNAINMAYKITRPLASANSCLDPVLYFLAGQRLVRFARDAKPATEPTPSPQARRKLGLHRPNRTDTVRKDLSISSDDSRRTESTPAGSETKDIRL
smiles,measurement,setting,value
"O=c1ccn([C@@H]2O[C@H](COP(=O)(O)OP(=O)(O)OP(=O)(O)O)[C@@H](O)[C@H]2O)c(=O)[nH]1 [UTP, reference compound]","ENaC current decay (ENaC inhibition), short-circuit current",ENaC,ENaC current decay
"O=C(Nc1ccccc1OCC1CCCCO1)C1CC2C=CC1C2 (stereo not shown) [compound 7, N-[2-(Tetrahydropyran-2-ylmethoxy)phenyl]bicyclo[2.2.1]hept-5-ene-2-carboxamide]","potentiation of the Ca2+ increase elicited by UTP, multiple concentrations",FRT cells,dose-dependent potentiation
"O=C(Nc1ccccc1OCC1CCCCO1)C1CCCN(c2ccccn2)C1 (stereo not shown) [compound 6, 1-(2-Pyridyl)-N-[2-(tetrahydropyran-2-ylmethoxy)phenyl]piperidine-3-carboxamide]","potentiation of the Ca2+ increase elicited by UTP, multiple concentrations",FRT cells,dose-dependent potentiation
"CC(=O)OCOC(=O)CN(CC(=O)OCOC(C)=O)c1ccccc1OCCOc1ccccc1N(CC(=O)OCOC(C)=O)CC(=O)OCOC(C)=O [BAPTA/AM, 1,2-Bis(2-aminophenoxy)ethane-N,N,N′,N′-tetraacetic acid tetrakis(acetoxymethyl ester), reference compound]",PLC activity with/without compounds after Ca2+ chelation,PLC,markedly inhibited
"C[C@H](CCC(=O)O)C[C@H](C)C[C@H](C)C(=O)/C=C(\O)[C@H](C)C[C@H](C)C/C=C/[C@@H](C)[C@@H](O)[C@@H](C)[C@@H](O)C[C@@H]1CC[C@@](C)([C@H]2CC[C@@](C)([C@@H](C)O)O2)O1 [ionomycin, reference compound]",activation of TMEM16A when Ca2+ directly increased (HS-YFP),TMEM16A,large effect
"COCCN(C(=O)c1cc(OC)c(OC)c(OC)c1)c1nc(-c2ccccc2)cs1 [Eact, reference compound]",direct Ca2+ mobilization in the absence of UTP (Fluo-4),"FRT cells; acute addition, compounds 10 μM, Eact 5 μM, FIG. 2B",elicits Ca^2+ influx
Cc1ccc2c(c1)C=Cc1cc(C)ccc1C2c1cn(Cc2ccc(C(=O)Nc3nn[nH]n3)o2)c(=O)[nH]c1=S [AR-C118925XX],effect of UTP alone and of UTP plus potentiators on Ca2+ mobilization,P2RY2,completely blocked
